Laboratory results as given in patent publication US12152020B2, “Pesticidally active azole-amide compounds” (SYNGENTA PARTICIPATIONS AG, priority 2018, dated 2024).

Columns and labels:
Assay type in all cases: in vivo
[1] = system: Plutella xylostella (Diamond Back Moth); assay: Example B5: Plutella xylostella, artificial diet in 24-well plates, eggs; settings: 192 h, application rate of 200 ppm, 8 days after infestation, in comparison to untreated samples, read-out: effect in at least one of the two categories (mortality or growth inhibition)
Method: Example B5: Plutella xylostella (Diamond Back Moth)
24-well microtiter plates with artificial diet were treated with aqueous test solutions prepared from 10′000 ppm DMSO stock solutions by pipetting. After drying, Plutella eggs were pipetted through a plastic stencil onto a gel blotting paper and the plate was closed with it. The samples were assessed for mortality and growth inhibition in comparison to untreated samples 8 days after infestation.
The following compounds gave an effect of at least 80% in at least one of the two categories (mortality or growth inhibition) at an application rate of 200 ppm: • P1, P2, P3, P4, P5, P7, P8, P9, P14, P15, P16, P17, P18, P21, P22, P23, P24, P25, P27, P28, P29, P30, P31, P32, P33, P34, P35, P36

[2] = system: Diabrotica balteata (Corn Root Worm); assay: Example B1: Diabrotica balteata, maize sprouts sprayed, L2 larvae; settings: 96 h, application rate of 200 ppm, 4 days after infestation, in comparison to untreated samples, read-out: effect in at least one of the two categories (mortality or growth inhibition)
Method: Example B1: Diabrotica balteata (Corn Root Worm)
Maize sprouts placed onto an agar layer in 24-well microtiter plates were treated with aqueous test solutions prepared from 10′000 ppm DMSO stock solutions by spraying. After drying, the plates were infested with L2 larvae (6 to 10 per well). The samples were assessed for mortality and growth inhibition in comparison to untreated samples 4 days after infestation.
The following compounds gave an effect of at least 80% in at least one of the two categories (mortality or growth inhibition) at an application rate of 200 ppm: • P2, P3, P4, P5, P6, P7, P8, P14, P15, P16, P17, P18, P19, P20, P21, P22, P23, P24, P25, P27, P28, P29, P30, P31, P32, P33, P34, P35

[3] = system: Spodoptera littoralis (Egyptian Cotton Leaf Worm); assay: Example B9: Spodoptera littoralis, cotton leaf discs sprayed, L1 larvae; settings: foliar, 72 h, application rate of 200 ppm, five L1 larvae, 3 days after infestation, in comparison to untreated samples, read-out: control in at least one of the categories (mortality, anti-feedant effect, or growth inhibition)
Method: Example B9: Spodoptera littoralis (Egyptian Cotton Leaf Worm)
Cotton leaf discs were placed onto agar in 24-well microtiter plates and sprayed with aqueous test solutions prepared from 10′000 ppm DMSO stock solutions. After drying the leaf discs were infested with five L1 larvae. The samples were assessed for mortality, anti-feeding effect, and growth inhibition in comparison to untreated samples 3 days after infestation. Control of Spodoptera littoralis by a test sample is given when at least one of the categories mortality, anti-feedant effect, and growth inhibition is higher than the untreated sample.

[4] = system: Chilo suppressalis (Striped Rice Stemborer); assay: Example B4: Chilo suppressalis, artificial diet, L2 larvae; settings: 144 h, application rate of 200 ppm, 6 days after infestation, in comparison to untreated samples, read-out: control in at least one of the categories (mortality, anti-feedant effect, or growth inhibition)
Method: Example B4: Chilo suppressalis (Striped Rice Stemborer)
24-well microtiter plates with artificial diet were treated with aqueous test solutions prepared from 10′000 ppm DMSO stock solutions by pipetting. After drying, the plates were infested with L2 larvae (6-8 per well). The samples were assessed for mortality, anti-feeding effect, and growth inhibition in comparison to untreated samples 6 days after infestation. Control of Chilo suppressalis by a test sample is given when at least one of the categories mortality, anti-feedant effect, and growth inhibition is higher than the untreated sample.

[5] = system: Myzus persicae (Green Peach Aphid); assay: Example B8: Myzus persicae intrinsic activity, sucrose solution under Parafilm, 24-well; settings: 120 h, test rate of 12 ppm, 5 days after infestation
Description: Example B8: Myzus persicae (Green Peach Aphid): Intrinsic Activity
Test compounds prepared from 10′000 ppm DMSO stock solutions were applied by pipette into 24-well microtiter plates and mixed with sucrose solution. The plates were closed with a stretched Parafilm. A plastic stencil with 24 holes was placed onto the plate and infested pea seedlings were placed directly on the Parafilm. The infested plate was closed with a gel blotting paper and another plastic stencil and then turned upside down. The samples were assessed for mortality 5 days after infestation.

[6] = system: Plutella xylostella (Diamondback Moth); assay: Example B14: Plutella xylostella, artificial diet in 96-well plates, eggs; settings: 216 h, application rate of 500 ppm, 9 days after infestation
Method: Example B14: Plutella xylostella (Diamondback Moth)
96-well microtiter plates containing artificial diet were treated with aqueous test solutions, prepared from 10′000 ppm DMSO stock solutions, by a liquid handling robot. After drying, eggs (˜30 per well) were infested onto a netted lid which was suspended above the diet. The eggs hatch and L1 larvae move down to the diet. The samples were assessed for mortality 9 days after infestation.
The following compounds gave an effect of at least 80% average mortality at an application rate of 500 ppm: • P2, P3, P5, P6, P7, P9, P15, P16, P17, P18, P20, P22, P24, P25, P30, P31, P32, P33, P38.

[7] = system: Myzus persicae (Green Peach Aphid); assay: Example B13: Myzus persicae, sucrose solution under Parafilm, 96-well; settings: 120 h, application rate of 50 ppm, 5 days after infestation
Description: Example B13: Myzus persicae (Green Peach Aphid)
Test compounds prepared from 10′000 ppm DMSO stock solutions were applied by a liquid handling robot into 96-well microtiter plates and mixed with a sucrose solution. Parafilm was stretched over the 96-well microtiter plate and a plastic stencil with 96 holes was placed onto the plate. Aphids were sieved into the wells directly onto the Parafilm. The infested plates were closed with a gel blotting card and a second plastic stencil and then turned upside down. The samples were assessed for mortality 5 days after infestation.

C[C@H](NC(=O)c1cc(C(F)(F)F)cc(C(F)(F)F)c1)c1nc(OC(F)(F)F)nn1-c1ncccn1 [Compound P23, N-[(1S)-1-[2-pyrimidin-2-yl-5-(trifluoromethoxy)-1,2,4-triazol-3-yl]ethyl]-3,5-bis(trifluoromethyl)benzamide]
≥ 80%: percent effect (mortality or growth inhibition) at 200 ppm [1] | percent effect (mortality or growth inhibition) at 200 ppm [2] | percent control (mortality, anti-feedant effect or growth inhibition) at 200 ppm [3]

CC(NC(=O)c1cc(C(F)(F)F)cc(C(F)(F)F)c1)c1nc(Cl)nn1-c1ncccn1 (stereo not shown) [Compound P34, N-[1-(5-chloro-2-pyrimidin-2-yl-1,2,4-triazol-3-yl)ethyl]-3,5-bis(trifluoromethyl) benzamide]
≥ 80%: percent effect (mortality or growth inhibition) at 200 ppm [1] | percent control (mortality, anti-feedant effect or growth inhibition) at 200 ppm [4] | mortality at 12 ppm [5] | percent effect (mortality or growth inhibition) at 200 ppm [2] | percent control (mortality, anti-feedant effect or growth inhibition) at 200 ppm [3]

CC(NC(=O)c1cc(Br)cc(C(F)(F)F)c1)c1nc(Br)nn1-c1ncccn1 (stereo not shown) [Compound P31, 3-bromo-N-[1-(5-bromo-2-pyrimidin-2-yl-1,2,4-triazol-3-yl)ethyl]-5-(trifluoromethyl) benzamide]
≥ 80%: percent effect (mortality or growth inhibition) at 200 ppm [1] | mortality at 500 ppm [6] | percent control (mortality, anti-feedant effect or growth inhibition) at 200 ppm [4] | mortality at 12 ppm [5] | percent effect (mortality or growth inhibition) at 200 ppm [2] | percent control (mortality, anti-feedant effect or growth inhibition) at 200 ppm [3]

CC(c1nc(C#N)nn1-c1ncccn1)N(C)C(=O)c1cc(C(F)(F)F)cc(C(F)(F)F)c1 (stereo not shown) [Compound P9, N-[1-(5-cyano-2-pyrimidin-2-yl-1,2,4-triazol-3-yl)ethyl]-N-methyl-3,5-bis(trifluoromethyl) benzamide]
≥ 80%: percent effect (mortality or growth inhibition) at 200 ppm [1] | mortality at 500 ppm [6]

CC(c1nc(S(=O)(=O)C(F)(F)F)nn1-c1ncccn1)N(C)C(=O)c1cc(C(F)(F)F)cc(C(F)(F)F)c1 (stereo not shown) [Compound P19, N-methyl-N-[1-[2-pyrimidin-2-yl-5-(trifluoromethylsulfonyl)-1,2,4-triazol-3-yl]ethyl]-3,5-bis(trifluoromethyl)benzamide]
≥ 80%: percent control (mortality, anti-feedant effect or growth inhibition) at 200 ppm [4] | percent effect (mortality or growth inhibition) at 200 ppm [2]

CC(=O)c1nc(C(C)NC(=O)c2cc(C(F)(F)F)cc(C(F)(F)F)c2)n(-c2ncccn2)n1 (stereo not shown) [Compound P35, N-[1-(5-acetyl-2-pyrimidin-2-yl-1,2,4-triazol-3-yl)ethyl]-3,5-bis(trifluoromethyl) benzamide]
≥ 80%: percent effect (mortality or growth inhibition) at 200 ppm [1] | percent control (mortality, anti-feedant effect or growth inhibition) at 200 ppm [4] | percent effect (mortality or growth inhibition) at 200 ppm [2] | percent control (mortality, anti-feedant effect or growth inhibition) at 200 ppm [3]

CC(NC(=O)c1cc(C(F)(F)F)cc(C(F)(F)F)c1)c1nc(OCC(F)(F)F)nn1-c1ncccn1 (stereo not shown) [Compound P27, N-[1-[2-pyrimidin-2-yl-5-(2,2,2-trifluoroethoxy)-1,2,4-triazol-3-yl]ethyl]-3,5-bis(trifluoromethyl) benzamide]
≥ 80%: percent effect (mortality or growth inhibition) at 200 ppm [1] | percent control (mortality, anti-feedant effect or growth inhibition) at 200 ppm [4] | percent effect (mortality or growth inhibition) at 200 ppm [2] | percent control (mortality, anti-feedant effect or growth inhibition) at 200 ppm [3]

CC(c1nc(-c2ccccc2)nn1-c1ncccn1)N(C)C(=O)c1cc(C(F)(F)F)cc(C(F)(F)F)c1 (stereo not shown) [Compound P6, N-methyl-N-[1-(5-phenyl-2-pyrimidin-2-yl-1,2,4-triazol-3-yl)ethyl]-3,5-bis(trifluoromethyl)benzamide]
≥ 80%: mortality at 500 ppm [6] | percent effect (mortality or growth inhibition) at 200 ppm [2]

CC(NC(=O)c1cc(C(F)(F)F)cc(C(F)(F)F)c1)c1nc(-c2nnco2)nn1-c1ncccn1 (stereo not shown) [Compound P30, N-[1-[5-(1,3,4-oxadiazol-2-yl)-2-pyrimidin-2-yl-1,2,4-triazol-3-yl]ethyl]-3,5-bis(trifluoromethyl)benzamide]
≥ 80%: percent effect (mortality or growth inhibition) at 200 ppm [1] | mortality at 500 ppm [6] | percent control (mortality, anti-feedant effect or growth inhibition) at 200 ppm [4] | mortality at 12 ppm [5] | percent effect (mortality or growth inhibition) at 200 ppm [2] | percent control (mortality, anti-feedant effect or growth inhibition) at 200 ppm [3] | mortality at 50 ppm [7]

CC(c1nc(SC(F)(F)F)nn1-c1ncccn1)N(C)C(=O)c1cc(C(F)(F)F)cc(C(F)(F)F)c1 (stereo not shown) [Compound P20, N-methyl-N-[1-[2-pyrimidin-2-yl-5-(trifluoromethylsulfanyl)-1,2,4-triazol-3-yl]ethyl]-3,5-bis(trifluoromethyl)benzamide]
≥ 80%: mortality at 500 ppm [6] | percent effect (mortality or growth inhibition) at 200 ppm [2] | percent control (mortality, anti-feedant effect or growth inhibition) at 200 ppm [3]

CC#Cc1nc(C(C)N(C)C(=O)c2cc(C(F)(F)F)cc(C(F)(F)F)c2)n(-c2ncccn2)n1 (stereo not shown) [Compound P8, N-methyl-N-[1(5-prop-1-ynyl-2-pyrimidin-2-yl-1,2,4-triazol-3-yl)ethyl]-3,5-bis(trifluoromethyl) benzamide]
≥ 80%: percent effect (mortality or growth inhibition) at 200 ppm [1] | percent control (mortality, anti-feedant effect or growth inhibition) at 200 ppm [4] | percent effect (mortality or growth inhibition) at 200 ppm [2]

CC(c1nc(Br)nn1-c1ccccn1)N(C)C(=O)c1cc(C(F)(F)F)cc(C(F)(F)F)c1 (stereo not shown) [Compound P24, N-[1-[5-bromo-2-(2-pyridyl)-1,2,4-triazol-3-yl]ethyl]-N-methyl-3,5-bis(trifluoromethyl) benzamide]
≥ 80%: percent effect (mortality or growth inhibition) at 200 ppm [1] | mortality at 500 ppm [6] | percent effect (mortality or growth inhibition) at 200 ppm [2] | percent control (mortality, anti-feedant effect or growth inhibition) at 200 ppm [3]

C=C(F)c1nc(C(C)N(C)C(=O)c2cc(C(F)(F)F)cc(C(F)(F)F)c2)n(-c2ncccn2)n1 (stereo not shown) [Compound P14, N-[1-[5-(1-fluorovinyl)-2-pyrimidin-2-yl-1,2,4-triazol-3-yl]ethyl]-N-methyl-3,5-bis(trifluoromethyl) benzamide]
≥ 80%: percent effect (mortality or growth inhibition) at 200 ppm [1] | percent control (mortality, anti-feedant effect or growth inhibition) at 200 ppm [4] | percent effect (mortality or growth inhibition) at 200 ppm [2] | mortality at 50 ppm [7]
